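Each compound was tested at five concentrations against cells in 96-well plates for 48 hours. GI50 is the concentration that inhibits growth by half.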 Calls of active or inactive are those of the source. Rule as the data show it: active = GI50 up to about 1.1 µM and inactive = higher.

What all share (assay): NCI anticancer screen, dose series, 48 h
The subject of experiment [1] is SNB-75.
In experiment [2] the test system is SF-268.
The test system of experiment [3] is SW-620.
The subject of experiment [4] is HL-60.
Experiment [5] has as its system HOP-62.
Experiment [6] concerns COLO 205.
In experiment [7] the test system is A549.
The subject of experiment [8] is SK-MEL-2.
The subject of experiment [9] is T47D.
Experiment [10] concerns RPMI-8226.
Experiment [11] relates to NCI-H522.
Experiment [12] deals with PC-3.
For experiment [13], the system named is SK-MEL-5.
Experiment [14] has as its system MDA-N.
In experiment [15] the test system is UACC-257.
Experiment [16] deals with MDA-MB-435.
Experiment [17] has as its system IGROV-1.
The test system of experiment [18] is TK-10.
In experiment [19] the test system is MDA-MB-231.
Experiment [20] deals with SK-OV-3.

As for `CN(C)CCNC(=O)c1ccc(NCCCN(C)CCCNc2ccc3c(=O)n(CCN(C)C)c(=O)n4c5ccccc5c(=O)c2c34)c2c(O)c3ccccc3nc12`, the GI50 in experiment [1] is < 0.01 µM (active); in [2], < 0.01 µM (active); in experiment [3], < 0.01 µM (active); in experiment [4] it was 0.0318 µM (active); in [5] it was < 0.01 µM (active); in experiment [6], < 0.0108 µM (active). Moreover, the GI50 in experiment [7] was < 0.01 µM (active); in experiment [8] it was 0.0315 µM (active); in experiment [9] it was 0.165 µM (active); in experiment [10], < 0.01 µM (active); in experiment [11] it was 0.0102 µM (active); in experiment [12], < 0.01 µM (active). The GI50 in experiment [13] was 0.0617 µM (active); in [14], 0.0332 µM (active); in experiment [15], 0.162 µM (active); in [16], 0.0124 µM (active); in experiment [17], < 0.01 µM (active); in [18] it was 0.0471 µM (active). The figures for the GI50 in experiment [19] and in experiment [20] were < 0.027 µM (active) and < 0.01 µM (active), respectively.

For the molecule `CCOC(=O)c1sc2nc(SC)nc3c2c1N=CN3c1ccccc1Cl`, the GI50 was 14.4 µM (inactive) in [1]; 24.1 µM (inactive) in experiment [2]; > 100 µM (inactive) in experiment [3]; 79.8 µM (inactive) in [4]; 6.98 µM (inactive) in experiment [5]; > 100 µM (inactive) in experiment [6]. Moreover, the GI50 in [7] was 71.3 µM (inactive); in experiment [8], 49.2 µM (inactive); in [9], 58.5 µM (inactive); in experiment [10], > 100 µM (inactive); in experiment [11] it was 20.5 µM (inactive); in experiment [12], > 100 µM (inactive). For the same molecule, the GI50 in experiment [13] was 52 µM (inactive); in experiment [14], > 100 µM (inactive); in experiment [15], > 100 µM (inactive); in experiment [16] it was > 100 µM (inactive); in [17], 68.1 µM (inactive); in [18], > 100 µM (inactive). The figures for the GI50 in experiment [19] and in experiment [20] were 30.9 µM (inactive) and 31.4 µM (inactive), respectively.

Turning to `O=c1c2ccccc2sc2cccc(NCCCN3CCN(CCCNc4cccc5sc6ccccc6c(=O)c45)CC3)c12`, the GI50 was 19.5 µM (inactive) in [1]; > 100 µM (inactive) in experiment [2]; > 100 µM (inactive) in [3]; > 100 µM (inactive) in experiment [4]; > 100 µM (inactive) in [5]; > 100 µM (inactive) in experiment [6]. The GI50 in experiment [7] is > 100 µM (inactive); in [8] it was > 100 µM (inactive); in experiment [9] it was > 100 µM (inactive); in experiment [10] it was > 100 µM (inactive); in experiment [11], > 100 µM (inactive); in experiment [12], 85.1 µM (inactive). Also, the GI50 in experiment [13], in experiment [14], in [15], in [16], in experiment [17] and in [18] was > 100 µM (inactive) each time. The GI50 in [19] and in experiment [20] was > 100 µM (inactive) each time.

As for `O=C(O)c1nc(-c2ccccn2)c(-c2ccccn2)nc1C(=O)O`, the GI50 in [1] was 3.49 µM (inactive); in experiment [2], 3.31 µM (inactive); in [3], 3.26 µM (inactive); in experiment [4], 2.25 µM (inactive); in experiment [5] it was 2.15 µM (inactive); in experiment [6], 2.47 µM (inactive). Besides, the GI50 in experiment [7] was 1.12 µM (inactive); in experiment [8], 4.95 µM (inactive); in experiment [9], 5.19 µM (inactive); in experiment [10], 2.86 µM (inactive); in experiment [11], 4.28 µM (inactive); in experiment [12] it was 4.47 µM (inactive). Further, the GI50 in [13] was 1.28 µM (inactive); in experiment [14] it was 2.2 µM (inactive); in experiment [15], 4.35 µM (inactive); in experiment [16], 3.62 µM (inactive); in [17] it was 3.5 µM (inactive); in [18], 3.48 µM (inactive). Moreover, the GI50 was 9.82 µM (inactive) in [19] and 3.77 µM (inactive) in experiment [20].

With `Brc1cccc(/C=C/CN2CCN(CCOC(c3ccccc3)c3ccccc3)CC2)c1`, the GI50 in experiment [1] is 6.08 µM (inactive); in [2] it was 16.4 µM (inactive); in [3], 17.8 µM (inactive); in [4], 7.45 µM (inactive); in experiment [5], 15.9 µM (inactive); in experiment [6], 14.2 µM (inactive). Also, the GI50 is 15.5 µM (inactive) in [7]; 17.8 µM (inactive) in experiment [8]; 3.73 µM (inactive) in experiment [9]; 4.08 µM (inactive) in [10]; 14.4 µM (inactive) in experiment [11]; 13.2 µM (inactive) in [12]. Moreover, the GI50 is 15.1 µM (inactive) in [13]; 16.7 µM (inactive) in experiment [14]; 17.9 µM (inactive) in experiment [15]; 12.6 µM (inactive) in experiment [16]; 15.9 µM (inactive) in [17]; 19.3 µM (inactive) in [18]. Moreover, the GI50 in experiment [19] was 13.9 µM (inactive); in experiment [20], 17.6 µM (inactive).

Turning to `C=CC1=C(C)c2cc3[nH]c(c4c5nc(cc6[nH]c(cc1n2)c(C)c6CC)C(C)=C5C(=O)[C@@H]4C(=O)OC)[C@@H](CCC(=O)O)[C@@H]3C`, the GI50 was 2.11 µM (inactive) in experiment [1]; 9.82 µM (inactive) in experiment [2]; 2.5 µM (inactive) in experiment [3]; 1.37 µM (inactive) in experiment [4]; 8.95 µM (inactive) in experiment [5]; 4.28 µM (inactive) in [6]. In addition, the GI50 in experiment [7] is 3.95 µM (inactive); in [8], 4.13 µM (inactive); in experiment [9], 5.81 µM (inactive); in [10], 2 µM (inactive); in experiment [11], 7.57 µM (inactive); in [12] it was 3.62 µM (inactive). Further, the GI50 in [13] was 1.42 µM (inactive); in experiment [14], 5.27 µM (inactive); in experiment [15], 5.32 µM (inactive); in [16] it was 2.24 µM (inactive); in experiment [17] it was 7.24 µM (inactive); in [18], 2.82 µM (inactive). For the same molecule, the results for the GI50 in experiment [19] and in experiment [20] were 11.2 µM (inactive) and 4.06 µM (inactive), respectively.

Take `CCC[C@H](C)[C@H]1NC(=O)[C@@H](NC(=O)[C@@H](CC(C)C)N(C)C(=O)C2CCCN2C(=O)[C@H](C)O)[C@@H](C)OC(=O)[C@H](CC(C)C)N(C)C(=O)[C@@H]2CCCN2C(=O)[C@H](CC(C)C)NC(=O)[C@@H](C)C(=O)[C@H](C(C)C)OC(=O)C[C@@H]1O` (stereo not given in full): the GI50 in [1], in experiment [2], in [3], in experiment [4], in experiment [5] and in [6] was < 0.0025 µM (active) in each case. Moreover, the GI50 in [7], in experiment [8], in experiment [9], in experiment [10], in experiment [11] and in [12] was < 0.0025 µM (active) throughout. The GI50 in [13], in experiment [14], in experiment [15], in experiment [16], in experiment [17] and in experiment [18] was < 0.0025 µM (active) each time. In addition, the GI50 in experiment [19] and in [20] was < 0.0025 µM (active) in each case.

Values taken from ChEMBL document CHEMBL1201862, “PubChem BioAssay data set” (2004).
